Experiments:
[1] = tested on: MOOVA (Monochoria vaginalis); assay: Flooded paddy, preemergence weed control; type: in vivo, Presl.; settings: rated 3-4 weeks after treatment, 0-9 rating scale
In short: (§1)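 Visual 0-9 rating versus control, scoring stand, vigor, malformation, size, chlorosis and overall appearance. Silt loam soil, propagules in top 0.5 cm; flood depth 1.5–3 cm held for the whole test; greenhouse.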

[2] = tested on: CYPIR (Cyperus iria); assay: Flooded paddy, preemergence weed control; type: in vivo; settings: rated 3-4 weeks after treatment, 0-9 rating scale
In short: as §1

[3] = tested on: CYPSE (Cyperus serotinus); assay: Flooded paddy, preemergence weed control; type: in vivo, Rottb.; settings: rated 3-4 weeks after treatment, 0-9 rating scale
In short: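 Herbicidal effect was scored visually on a 0–9 scale against an untreated control 3–4 weeks after treatment. Compounds were applied preemergence as 50/50 v/v aqueous/acetone mixtures into flood water (1.5–3 cm deep over silt loam), at roughly 0.0080 to 0.1250 kg/ha active ingredient.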

[4] = tested on: ORYSAT (Rice, Tebonnet); assay: Flooded paddy, post-transplant rice tolerance; type: in vivo, Oryza sativa, (L.) Tebonnet; settings: flooded paddy, post-transplant rice, rated 3-4 weeks after treatment, 0-9 rating scale
In short: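 Seedlings aged ten days are transplanted in pairs into undrained pots of silt loam, which are then flooded to a depth of 1.5 to 3 cm. After herbicide application the pots are kept in a greenhouse with the flood maintained. Plants are rated 0-9 by visual comparison with controls.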

[5] = tested on: ECHORC (Echinochloa oryzoides); assay: Flooded paddy, preemergence weed control; type: in vivo, Echinochloa oryzoides (Ard.) Fritsch.; settings: rated 3-4 weeks after treatment, 0-9 rating scale
In short: as §1

[6] = tested on: TRZAWR (Wheat, Winter, cv Riband); assay: Postemergence herbicidal evaluation; type: in vivo, Triticum aestivum
In short: (§2)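 Seedlings grown about two weeks in flats, sprayed, then kept under standard greenhouse care. Rated visually 4–5 weeks after treatment on a 0–9 scale (stand, vigour, malformation, size, chlorosis, overall appearance) relative to untreated control; repeat tests averaged.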

[7] = tested on: ABUTH (Abutilon theophrasti); assay: Preemergence herbicidal evaluation; type: in vivo, Medic.; settings: preemergence, rated 4-5 weeks after treatment
[8] = tested on: ZEAMX (Corn, Field); assay: Preemergence herbicidal evaluation; type: in vivo, Zea mays, L.; settings: preemergence, rated 4-5 weeks after treatment
[9] = tested on: GLXMAW (Soybean, Williams); assay: Preemergence herbicidal evaluation; type: in vivo, Glycine max, (L.) Merr. cv Williams; settings: preemergence, rated 4-5 weeks after treatment
[10] = tested on: SETVI (Setaria viridis); assay: Postemergence herbicidal evaluation; type: in vivo, (L.) Beau
In short: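 ~2-wk seedlings; spray 0.0040–1.000 kg/ha in 50/50 acetone/water + 0.5% TWEEN 20, 40 psi nozzle. Greenhouse hold; visual 0–9 rating vs control at 4–5 wk; multiple tests averaged.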

[11] = tested on: SAGPY (Sagittaria pygmaea); assay: Flooded paddy, preemergence weed control; type: in vivo, L.; settings: rated 3-4 weeks after treatment, 0-9 rating scale
In short: as §1

[12] = tested on: ECHCG (Echinochloa crus-galli); assay: Postemergence herbicidal evaluation; type: in vivo, (L.) Beau
In short: as §2

[13] = tested on: IPOHE (Ipomoea hederacea); assay: Preemergence herbicidal evaluation; type: in vivo, (L.) Jacq.; settings: preemergence, rated 4-5 weeks after treatment
[14] = tested on: CASOB (Cassia obtusifolia); assay: Preemergence herbicidal evaluation; type: in vivo, L.; settings: preemergence, rated 4-5 weeks after treatment
In short: (§3)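 Applied before emergence as an aqueous acetone spray over seeded soil. Read-out: 0–9 visual rating covering plant stand, vigor, size, chlorosis, malformation and overall appearance compared with control, taken 4–5 weeks after spraying.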

[15] = tested on: AMBEL (Ambrosia artemisifolia); assay: Preemergence herbicidal evaluation; type: in vivo, L.; settings: preemergence, rated 4-5 weeks after treatment
In short: as §3

[16] = tested on: CHEAL (Chenopodium album); assay: Preemergence herbicidal evaluation; type: in vivo, L.; settings: preemergence, rated 4-5 weeks after treatment
In short: as §3

## Cn1c(C(F)(F)F)cc(=O)n(-c2ccc3snc(C4SCCN4C(=O)c4ccccc4)c3c2)c1=O (stereo not shown) [Compound 30, 3-benzoyl-2-[5-[3,6-dihydro-3-methyl-2,6-dioxo-4-(trifluoromethyl)-1(2H)-pyrimidinyl]-1,2-benzisothiazol-3-yl]thiazolidine]
[1]; rate 0.0080 kg/ha
  herbicidal rating, MOOVA: 0.0
[1]; rate 0.0320 kg/ha
  herbicidal rating, MOOVA: 8.5
[1]; rate 0.1250 kg/ha
  herbicidal rating, MOOVA: 9.0
[2]; rate 0.0080 kg/ha
  herbicidal rating, CYPIR: 0.0
[2]; rate 0.0320 kg/ha
  herbicidal rating, CYPIR: 7.0
[2]; rate 0.1250 kg/ha
  herbicidal rating, CYPIR: 9.0
[3]; rate 0.0320 kg/ha
  herbicidal rating, CYPSE: 0.0
[3]; rate 0.1250 kg/ha
  herbicidal rating, CYPSE: 3.0
[4]; rate 0.0080 kg/ha
  herbicidal rating, ORYSAT (rice tolerance): 0.0
[4]; rate 0.0320 kg/ha
  herbicidal rating, ORYSAT (rice tolerance): 3.0
[4]; rate 0.1250 kg/ha
  herbicidal rating, ORYSAT (rice tolerance): 5.0
[5]; rate 0.0080 kg/ha
  herbicidal rating, ECHORC: 3.0
[5]; rate 0.0320 kg/ha
  herbicidal rating, ECHORC: 4.0
[5]; rate 0.1250 kg/ha
  herbicidal rating, ECHORC: 9.0
[6]; rate 0.0320 kg/ha
  Postemergence herbicidal rating, TRZAWR: 4.5
[6]; rate 0.0620 kg/ha
  Postemergence herbicidal rating, TRZAWR: 4.5
[7]; Rate 0.0620 kg/ha
  ABUTH preemergence herbicidal rating: 9.0
[7]; Rate 0.1250 kg/ha
  ABUTH preemergence herbicidal rating: 9.0
[7]; Rate 0.2500 kg/ha
  ABUTH preemergence herbicidal rating: 9.0
[8]; Rate 0.0620 kg/ha
  ZEAMX preemergence herbicidal rating: 0.5
[8]; Rate 0.1250 kg/ha
  ZEAMX preemergence herbicidal rating: 3.5
[8]; Rate 0.2500 kg/ha
  ZEAMX preemergence herbicidal rating: 5.5
[9]; Rate 0.0620 kg/ha
  GLXMAW preemergence herbicidal rating: 1.0
[9]; Rate 0.1250 kg/ha
  GLXMAW preemergence herbicidal rating: 0.0
[9]; Rate 0.2500 kg/ha
  GLXMAW preemergence herbicidal rating: 5.0
[10]; rate 0.0320 kg/ha
  Postemergence herbicidal rating, SETVI: 0.0
[10]; rate 0.0620 kg/ha
  Postemergence herbicidal rating, SETVI: 4.0
[11]; rate 0.0080 kg/ha
  herbicidal rating, SAGPY: 0.0
[11]; rate 0.0320 kg/ha
  herbicidal rating, SAGPY: 1.0
[11]; rate 0.1250 kg/ha
  herbicidal rating, SAGPY: 6.0
[12]; rate 0.0320 kg/ha
  Postemergence herbicidal rating, ECHCG: 0.0
[12]; rate 0.0620 kg/ha
  Postemergence herbicidal rating, ECHCG: 2.0
[13]; Rate 0.0620 kg/ha
  IPOHE preemergence herbicidal rating: 1.5
[13]; Rate 0.1250 kg/ha
  IPOHE preemergence herbicidal rating: 1.5
[13]; Rate 0.2500 kg/ha
  IPOHE preemergence herbicidal rating: 6.5
[14]; Rate 0.0620 kg/ha
  CASOB preemergence herbicidal rating: 0.0
[14]; Rate 0.1250 kg/ha
  CASOB preemergence herbicidal rating: 1.5
[14]; Rate 0.2500 kg/ha
  CASOB preemergence herbicidal rating: 3.0
[15]; Rate 0.0620 kg/ha
  AMBEL preemergence herbicidal rating: 4.5
[15]; Rate 0.1250 kg/ha
  AMBEL preemergence herbicidal rating: 7.5
[15]; Rate 0.2500 kg/ha
  AMBEL preemergence herbicidal rating: 9.0
[16]; Rate 0.0620 kg/ha
  CHEAL preemergence herbicidal rating: 9.0
[16]; Rate 0.1250 kg/ha
  CHEAL preemergence herbicidal rating: 9.0
[16]; Rate 0.2500 kg/ha
  CHEAL preemergence herbicidal rating: 9.0

## Cn1c(C(F)(F)F)cc(=O)n(-c2ccc3snc(C4OCCS4)c3c2)c1=O (stereo not shown) [Compound 31, 1-methyl-3-[3-(1,3-oxathiolan-2-yl)-1,2-benzisothiazol-5-yl]-6-(trifluoromethyl)uracil]
[1]; rate 0.0080 kg/ha
  herbicidal rating, MOOVA: 5.0
[1]; rate 0.0320 kg/ha
  herbicidal rating, MOOVA: 9.0
[1]; rate 0.1250 kg/ha
  herbicidal rating, MOOVA: 9.0
[2]; rate 0.0080 kg/ha
  herbicidal rating, CYPIR: 0.0
[2]; rate 0.0320 kg/ha
  herbicidal rating, CYPIR: 9.0
[2]; rate 0.1250 kg/ha
  herbicidal rating, CYPIR: 9.0
[3]; rate 0.0320 kg/ha
  herbicidal rating, CYPSE: 4.0
[3]; rate 0.1250 kg/ha
  herbicidal rating, CYPSE: 5.0
[4]; rate 0.0080 kg/ha
  herbicidal rating, ORYSAT (rice tolerance): 0.0
[4]; rate 0.0320 kg/ha
  herbicidal rating, ORYSAT (rice tolerance): 7.5
[4]; rate 0.1250 kg/ha
  herbicidal rating, ORYSAT (rice tolerance): 9.0
[5]; rate 0.0080 kg/ha
  herbicidal rating, ECHORC: 3.0
[5]; rate 0.0320 kg/ha
  herbicidal rating, ECHORC: 8.0
[5]; rate 0.1250 kg/ha
  herbicidal rating, ECHORC: 9.0
[6]; rate 0.0320 kg/ha
  Postemergence herbicidal rating, TRZAWR: 5.0
[6]; rate 0.0620 kg/ha
  Postemergence herbicidal rating, TRZAWR: 5.5
[7]; Rate 0.0620 kg/ha
  ABUTH preemergence herbicidal rating: 8.3
[7]; Rate 0.1250 kg/ha
  ABUTH preemergence herbicidal rating: 9.0
[7]; Rate 0.2500 kg/ha
  ABUTH preemergence herbicidal rating: 9.0
[8]; Rate 0.0620 kg/ha
  ZEAMX preemergence herbicidal rating: 4.7
[8]; Rate 0.1250 kg/ha
  ZEAMX preemergence herbicidal rating: 6.3
[8]; Rate 0.2500 kg/ha
  ZEAMX preemergence herbicidal rating: 8.5
[9]; Rate 0.0620 kg/ha
  GLXMAW preemergence herbicidal rating: 8.5
[9]; Rate 0.1250 kg/ha
  GLXMAW preemergence herbicidal rating: 7.3
[9]; Rate 0.2500 kg/ha
  GLXMAW preemergence herbicidal rating: 9.0
[10]; rate 0.0320 kg/ha
  Postemergence herbicidal rating, SETVI: 3.0
[10]; rate 0.0620 kg/ha
  Postemergence herbicidal rating, SETVI: 7.0
[11]; rate 0.0080 kg/ha
  herbicidal rating, SAGPY: 0.0
[11]; rate 0.0320 kg/ha
  herbicidal rating, SAGPY: 9.0
[11]; rate 0.1250 kg/ha
  herbicidal rating, SAGPY: 9.0
[12]; rate 0.0320 kg/ha
  Postemergence herbicidal rating, ECHCG: 2.0
[12]; rate 0.0620 kg/ha
  Postemergence herbicidal rating, ECHCG: 2.0
[13]; Rate 0.0620 kg/ha
  IPOHE preemergence herbicidal rating: 5.0
[13]; Rate 0.1250 kg/ha
  IPOHE preemergence herbicidal rating: 9.0
[13]; Rate 0.2500 kg/ha
  IPOHE preemergence herbicidal rating: 9.0
[14]; Rate 0.0620 kg/ha
  CASOB preemergence herbicidal rating: 5.0
[14]; Rate 0.1250 kg/ha
  CASOB preemergence herbicidal rating: 8.0
[14]; Rate 0.2500 kg/ha
  CASOB preemergence herbicidal rating: 9.0
[15]; Rate 0.0620 kg/ha
  AMBEL preemergence herbicidal rating: 9.0
[15]; Rate 0.1250 kg/ha
  AMBEL preemergence herbicidal rating: 9.0
[15]; Rate 0.2500 kg/ha
  AMBEL preemergence herbicidal rating: 9.0
[16]; Rate 0.0620 kg/ha
  CHEAL preemergence herbicidal rating: 9.0
[16]; Rate 0.1250 kg/ha
  CHEAL preemergence herbicidal rating: 9.0
[16]; Rate 0.2500 kg/ha
  CHEAL preemergence herbicidal rating: 9.0

— patent US6706663B2, “Herbicidal 3-heterocyclic substituted benzisothiazole and benzisoxazole compounds” (Wyeth, priority 2000, dated 2004)
